Measured values as given in article PMC10656311, “Evaluation of the probable synergistic toxicity of selected potentiated antiretroviral and antibiotics on some aquatic biomarker organisms” (Environmental Monitoring and Assessment, 2023).
“And” between values parts separate entries of the source, which are not always exact repeats. Identical values can stand only once. “Also recorded” adds a separate entry of the source. Like-named read-outs stand apart in the source and are kept apart here.

Columns and labels:
[1] = tested on: root tip meristem cells of Allium cepa; assay: Allium cepa root tip microscopic examination (chromosomal aberrations); assay type: cell-based; conditions: 100 µg/L; for chromosomal aberrations observed in root tip meristem: light microscopy
Method: (§1) Whole-onions test specimens were grown at room temperature (in triplicate). The onions were initially grown for 2 days in tap water. Prior to growing them in tap water, the ring of the root, the primordia at the bottom of the onion bulb, was scraped with a sterile surgical blade to remove all existing root growth. After 2 days of tap water exposure, the lengths of the root fibers of each onion were measured and recorded. This was followed by exposure to the test solutions for another 2 days (tap water was used as the control). […] At the end of the exposure, the onion roots were cut 3 cm from the tip and placed in Carnoy’s fixative solution ([…] (Merck, Germany)) until further microscopic analysis.
This was followed by washing the root tips in distilled water, after which they were stained using Feulgen stain for 2–3 min. The stained root tips were then rinsed in distilled water, transferred onto clean glass microscope slides, and counter-stained with acetocarmine. […] The squashed onion root tips were thereafter imaged using a LEICA DM-750 light microscope at × 400 and × 1000 magnifications.
Microscopic evaluation of Allium cepa cells during mitosis was conducted to ascertain the impacts the L, C, and S test samples (lone and mixtures) will have on the genetic materials of the onion roots at cellular levels.

[2] = tested on: Salmonella typhimurium TA100; assay: Ames mutagenicity test (agar plate method), strain TA100; conditions: for Number of revertant colonies per plate, Mean / Number of revertant colonies per plate, NR 1 / Number of revertant colonies per plate, NR 2 / Number of revertant colonies per plate, NR3 / mutagenic/cytotoxic effect (in words): TA 100; for Number of revertant colonies per plate, NR 1: plate 1; for Number of revertant colonies per plate, NR 2: plate 2; for Number of revertant colonies per plate, NR3: plate 3
Description: The revertant bacteria are detected by their ability to grow in the absence of the amino acid required by the parent test strain. The Ames test method was employed to investigate the potential of a chemical to induce a mutagenic effect in exposed organisms. Three different Salmonella typhimurium bacteria strains ([TA98 P450], [TA100], and [TA100—P450], which simulate metabolic activation) were used in order to account for discrepancies in the way similar organisms (bacteria) may respond to test solutions.
Salmonella typhimurium bacteria were cultured on a freshly prepared nutrient broth medium (Merck, Germany), and allowed to stand overnight. Bacterial growth was confirmed by visual turbidity inspection. […] All experiments were carried out in triplicate. The mutagenicity of the PCs was further classified based on fuzzy logic four-gridded indices (Table 2).
A substance is deemed mutagenic if its mutation rate is twice or more than that of the background.
Salmonella typhimurium bacterial strains TA 98 P450, TA 100, or TA100 P450 were exposed to an equimolar concentration (10 and 100 µg/L) ternary cocktail mixtures of the L, C, and S in the Ames test.

[3] = tested on: Salmonella typhimurium TA98 P450; assay type: cell-based; conditions: for Number of revertant colonies per plate, NR 1: plate 1; for Number of revertant colonies per plate, NR 2: plate 2; for Number of revertant colonies per plate, NR3: plate 3
Method: (§2) Bacterial growth was confirmed by visual turbidity inspection. […] All experiments were carried out in triplicate.

Daphnia magna = conditions: for Mean mortality (n = 20): five daphnids per well, four replicates
[4] = tested on: Salmonella typhimurium TA100 P450; assay: Ames mutagenicity test (agar plate method), strain TA100 P450; assay type: cell-based; conditions: for mutagenic/cytotoxic effect (in words) / Number of revertant colonies per plate, Mean: TA100 P450; for Number of revertant colonies per plate, NR 1 / Number of revertant colonies per plate, NR 2 / Number of revertant colonies per plate, NR3: TA 100 P450; for Number of revertant colonies per plate, NR 1: plate 1; for Number of revertant colonies per plate, NR 2: plate 2; for Number of revertant colonies per plate, NR3: plate 3
Method: as §2

Allium cepa = Allium cepa root length assay (phytotoxic inhibition of root growth); assay type: in vivo
Method: as §1
The test APCs and their mixtures in different combinations were investigated for their phytotoxic characteristics at 10 µg/L and 100 µg/L concentrations, using A. cepa bioassays. The root length assay relies on evaluating the root length of A. cepa as an indicator endpoint to assess the susceptibility of plants exposed to xenobiotics by evaluating physical impacts on their root growth. The ratio between the root length (mm) (RRL) after and before exposure to test solutions ( ^RLAERLBE ) was used as indices for the APCs’ phytotoxicity.

O=C(O)c1cn(C2CC2)c2cc(N3CCNCC3)c(F)cc2c1=O [Ciprofloxacin, ciprofloxacin]
chromosomal aberrations observed in root tip meristem [1]: uncoiling chromosome/irregular prophase
Number of revertant colonies per plate, Mean ([2]; 10 µg/L): 140
Number of revertant colonies per plate, NR 1 ([2]; 10 µg/L): 140
Number of revertant colonies per plate, NR 2 ([2]; 10 µg/L): 170
Number of revertant colonies per plate, NR3 ([2]; 10 µg/L): 110
Number of revertant colonies per plate, Mean ([2]; 100 µg/L): 140
mutagenic/cytotoxic effect (in words) ([2]; 100 µg/L): did not individually exert cytotoxicity
Number of revertant colonies per plate, NR 1 ([2]; 100 µg/L): 130
Number of revertant colonies per plate, NR 2 ([2]; 100 µg/L): 140
Number of revertant colonies per plate, NR3 ([2]; 100 µg/L): 150
mutagenic/cytotoxic effect (in words) ([3]; 10 µg/L): did not exert either mutagenic or cytotoxic effects
mutagenic/cytotoxic effect (in words) ([3]; 100 µg/L): to a much lesser extent mutagenic; also recorded: did not individually exert cytotoxicity; also recorded: some level of mutagenic activities
Mean % mortality (Daphnia magna; 10 µg/L, 24 h): 10%
Mean mortality (n = 20) (Daphnia magna; 10 µg/L, 24 h): 0.50 ± 0.58
Mean % mortality (Daphnia magna; 10 µg/L, 48 h): 55%
Mean mortality (n = 20) (Daphnia magna; 10 µg/L, 48 h): 2.75 ± 0.50
Mean % mortality (Daphnia magna; 100 µg/L, 24 h): 50%
Mean mortality (n = 20) (Daphnia magna; 100 µg/L, 24 h): 2.5 ± 1.73
Mean % mortality (Daphnia magna; 100 µg/L, 48 h): 75%
Mean mortality (n = 20) (Daphnia magna; 100 µg/L, 48 h): 3.75 ± 1.26
mutagenic/cytotoxic effect (in words) ([4]; 10 µg/L): did not exert either mutagenic or cytotoxic effects
mutagenic/cytotoxic effect (in words) ([4]; 100 µg/L): did not individually exert cytotoxicity

Nc1ccn([C@@H]2CS[C@H](CO)O2)c(=O)n1 [Lamivudine, lamivudine]
A. cepa root exposure C.A (chromosomal aberration) [1]: +
chromosomal aberrations observed in root tip meristem [1]: irregular prophase and metaphase
Ames test (mutagenicity) TA 100 [2]: b (key: Toxic (a) x<0.5; No mutagenicity (b) x≥0.5≤1.5; Mutagenic to a lesser extent (c) x>1.5<2.0; Significantly mutagenic (d) x≥2.0)
Number of revertant colonies per plate, Mean ([2]; 10 µg/L): 160
mutagenic/cytotoxic effect (in words) ([2]; 10 µg/L): did not exert either mutagenic or cytotoxic effects
Number of revertant colonies per plate, NR 1 ([2]; 10 µg/L): 190
Number of revertant colonies per plate, NR 2 ([2]; 10 µg/L): 150
Number of revertant colonies per plate, NR3 ([2]; 10 µg/L): 140
Number of revertant colonies per plate, Mean ([2]; 100 µg/L): 163
Number of revertant colonies per plate, NR 1 ([2]; 100 µg/L): 180
Number of revertant colonies per plate, NR 2 ([2]; 100 µg/L): 150
Number of revertant colonies per plate, NR3 ([2]; 100 µg/L): 160
Number of revertant colonies per plate, Mean ([3]; 10 µg/L): 16
mutagenic/cytotoxic effect (in words) ([3]; 10 µg/L): did not exert either mutagenic or cytotoxic effects
Number of revertant colonies per plate, NR 1 ([3]; 10 µg/L): 13
Number of revertant colonies per plate, NR 2 ([3]; 10 µg/L): 23
Number of revertant colonies per plate, NR3 ([3]; 10 µg/L): 13
Number of revertant colonies per plate, Mean ([3]; 100 µg/L): 18
mutagenic/cytotoxic effect (in words) ([3]; 100 µg/L): to a much lesser extent mutagenic; also recorded: some level of mutagenic activities
Number of revertant colonies per plate, NR 1 ([3]; 100 µg/L): 20
Number of revertant colonies per plate, NR 2 ([3]; 100 µg/L): 15
Number of revertant colonies per plate, NR3 ([3]; 100 µg/L): 18
Mean % mortality (Daphnia magna; 10 µg/L, 24 h): 10%
Mean mortality (n = 20) (Daphnia magna; 10 µg/L, 24 h): 0.50 ± 0.60
Mean % mortality (Daphnia magna; 10 µg/L, 48 h): 45%
Mean mortality (n = 20) (Daphnia magna; 10 µg/L, 48 h): 2.30 ± 1.00
Mean % mortality (Daphnia magna; 100 µg/L, 24 h): 85%
Mean mortality (n = 20) (Daphnia magna; 100 µg/L, 24 h): 4.30 ± 1.00
Mean % mortality (Daphnia magna; 100 µg/L, 48 h): 100%
Mean mortality (n = 20) (Daphnia magna; 100 µg/L, 48 h): 5.00 ± 0.00
LD50 as log concentration (Daphnia magna; 24 h): 1.533 log conc. (ppb)
LD50 as log concentration (Daphnia magna; 48 h): 1.091 log conc. (ppb) and 1.09 log conc. (ppb)
Toxic unit 24 hrs (Daphnia magna; toxic unit of the constituent in the LCS mixture, 24 h): 1.12
Toxic unit 48 hrs (Daphnia magna; toxic unit of the constituent in the LCS mixture, 48 h): 1.93
A. cepa root exposure R.L (Allium cepa; 10 µg/L): -
A. cepa root exposure R.L (Allium cepa; 100 µg/L): +
Number of revertant colonies per plate, Mean ([4]; 10 µg/L): 233
mutagenic/cytotoxic effect (in words) ([4]; 10 µg/L): did not exert either mutagenic or cytotoxic effects
Number of revertant colonies per plate, NR 1 ([4]; 10 µg/L): 200
Number of revertant colonies per plate, NR 2 ([4]; 10 µg/L): 200
Number of revertant colonies per plate, NR3 ([4]; 10 µg/L): 300
Number of revertant colonies per plate, Mean ([4]; 100 µg/L): 300
Number of revertant colonies per plate, NR 1 ([4]; 100 µg/L): 210
Number of revertant colonies per plate, NR 2 ([4]; 100 µg/L): 310
Number of revertant colonies per plate, NR3 ([4]; 100 µg/L): 380

Cc1cc(NS(=O)(=O)c2ccc(N)cc2)no1 [Sulfamethoxazole, sulfamethoxazole]
chromosomal aberrations observed in root tip meristem [1]: vagrant chromosome in anaphase and alignment anaphase
Number of revertant colonies per plate, Mean ([2]; 10 µg/L): 123
Number of revertant colonies per plate, NR 1 ([2]; 10 µg/L): 100
Number of revertant colonies per plate, NR 2 ([2]; 10 µg/L): 150
Number of revertant colonies per plate, NR3 ([2]; 10 µg/L): 120
Number of revertant colonies per plate, Mean ([2]; 100 µg/L): 117
Number of revertant colonies per plate, NR 1 ([2]; 100 µg/L): 110
Number of revertant colonies per plate, NR 2 ([2]; 100 µg/L): 110
Number of revertant colonies per plate, NR3 ([2]; 100 µg/L): 130
Mean % mortality (Daphnia magna; 10 µg/L, 24 h): 15%
Mean mortality (n = 20) (Daphnia magna; 10 µg/L, 24 h): 0.75 ± 0.50
Mean % mortality (Daphnia magna; 10 µg/L, 48 h): 30%
Mean mortality (n = 20) (Daphnia magna; 10 µg/L, 48 h): 1.50 ± 1.73
Mean % mortality (Daphnia magna; 100 µg/L, 24 h): 50%
Mean mortality (n = 20) (Daphnia magna; 100 µg/L, 24 h): 2.50 ± 0.58
Mean % mortality (Daphnia magna; 100 µg/L, 48 h): 95%
Mean mortality (n = 20) (Daphnia magna; 100 µg/L, 48 h): 4.75 ± 0.50
